38 compounds from patent US6878742B2, “Heterocyclic sulfonamide inhibitors of beta amyloid production” (Wyeth, priority 2000, dated 2005) can be followed below.

Where “and” joins values, the source holds several entries; their conditions need not be identical. Equal entries are not always repeated. Where two headings read alike, the source gives them in different places.

This test concerns amyloid precursor protein (APP) proteolysis. The test is described as follows: Repressor Release Assay (RRA). The format is cell-based. A digest of the protocol:
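This repressor release assay monitors APP proteolysis in mammalian cells. Transfected CHO-K1 cells (pRSVO-luc plus APP-lacI) were seeded at […], treated with compound diluted in 25 mM Hepes, then incubated 36-48 hours. After replacing media with PBS and adding LucLite lysis/substrate buffer, luminescence was measured, and fold increase over diluent control was calculated.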

[1] abbreviates: Conc 20 μg/mL, luciferase activity over diluent control, read-out: APPI Fold Increase.
Setting [2] is: Conc 10 μg/mL, luciferase activity over diluent control, read-out: APPI Fold Increase.
Setting [3] is: Conc 20 μg/mL, luciferase activity over diluent control.
The mark [4] stands for this setting: Conc 10 μg/mL, luciferase activity over diluent control.
Where [5] appears, read: Conc 3 μg/mL, luciferase activity over diluent control.
The mark [6] stands for this setting: Conc 3 μg/mL, luciferase activity over diluent control, read-out: APPI Fold Increase.

Consider `CC(C)C[C@@H](C)[C@@H](CO)NS(=O)(=O)c1ccc(Cl)s1` [Example 27, 5-Chloro-N-[(1S,2R)-1-(hydroxymethyl)-2,4-dimethylpentyl]thiophene-2-sulfonamide], for which the fold induction at 20 µg/mL under setting [1] is 8.7.
For `C[C@@H](O)[C@@H](CO)NS(=O)(=O)c1ccc(Br)s1` [Example 117, 5-bromo-N-[(R,R)-2-hydroxy-1-(hydroxymethyl)propyl]thiophene-2-sulfonamide], the fold induction at 20 µg/mL under setting [1] is 2.6.
For the compound `C=CC(O)[C@@H](NS(=O)(=O)c1cccs1)[C@@H](C)CC` (stereo partly drawn) [Example 146, N-{(S)-2-hydroxy-1-[(S)-1-methylpropyl]but-3-enyl}thiophene-2-sulfonamide], under setting [2], the fold induction at 10 µg/mL amounted to 1.83.
Turning to `O=S(=O)(N[C@H](CO)C1CCNCC1)c1ccc(Cl)s1` [Example 225, 5-Chloro-N-[(S)-2-hydroxy-1-piperidin-4-ylethyl]thiophene-2-sulfonamide], the fold induction at 20 µg/mL under setting [1] was 8.
For “5-bromo-N-{(S,S)-1-[R-1-hydroxyethyl]-2-methylbutyl}thiophene-2-sulfonamide [Example 191]”, the “APPI Fold Increase” value under setting [3] is 5.4 fold and 4.8 fold.
On to `CC[C@H](C)[C@H](NS(=O)(=O)c1ccc(Cl)s1)C(O)c1ccc(SC)cc1` (stereo partly drawn) [Example 138, 5-chloro-N-((S,S)-1-{hydroxy[4-(methylthio)phenyl]methyl}-2-methylbutyl)thiophene-2-sulfonamide], for which the fold induction at 10 µg/mL under setting [2] stood at 3.54.
`CC(C)(C)[C@@H](CO)NS(=O)(=O)c1ccc(Cl)s1` [Example 98]: under setting [4], the “APPI Fold Increase” value was determined as 2.43 fold.
For the compound `CCCNC1CCC(C(CO)NS(=O)(=O)c2ccc(Cl)s2)CC1` (mixture of isomers) [Example 214], the “APPI Fold Increase” value under setting [3] amounted to 2.1 fold.
Consider `O=S(=O)(N[C@H](CO)C1CCC(O)CC1)c1ccc(Cl)s1` (stereo partly drawn) [Example 199A, 5-Chloro-N-[(S)-2-hydroxy-1-(4-hydroxycyclohexyl)ethyl]thiophene-2-sulfonamide], for which, under setting [1], the fold induction at 20 µg/mL stood at 2.4.
As for `CC[C@H](C)[C@@H](/C=N/O)NS(=O)(=O)c1ccc(Cl)s1` [Example 230], the fold induction at 20 µg/mL under setting [1] is 4.8.
Turning to `CC(C)CC(CO)NS(=O)(=O)c1ccc(Br)s1` (stereo not shown) [Example 105], the “APPI Fold Increase” value (Conc 1 μg/mL, luciferase activity over diluent control) was found to be 1.57 fold; the “APPI Fold Increase” value under setting [5] came out at 2.23 fold; the “APPI Fold Increase” value under setting [4] turned out to be 3.93 fold; the “APPI Fold Increase” value under setting [3] is 2.4 fold and 1.5 fold.
Regarding `CC(C)C[C@@H](c1ccccc1)[C@@H](CO)NS(=O)(=O)c1ccc(Cl)s1` [Example 47, 5-chloro-N-[(1S,2S)-1-(hydroxymethyl)-4-methyl-2-phenylpentyl]thiophene-2-sulfonamide], under setting [1], the fold induction at 20 µg/mL is 5.4.
As for `CC[C@H](C)[C@H](NS(=O)(=O)c1cccs1)C(O)C(C)(C)C` (stereo partly drawn) [Example 145, N-{(S)-2-hydroxy-3,3-dimethyl-1-[(S)-1-methylpropyl]butyl}thiophene-2-sulfonamide], the fold induction at 10 µg/mL under setting [2] was found to be 1.72.
The same measure, in the same setting: as for `C/C=C(\C)C(O)(/C(C)=C/C)[C@@H](NS(=O)(=O)c1ccc(Cl)s1)[C@@H](C)CC` (stereo partly drawn) [Example 170, 5-chloro-N-{(S,E)-2-hydroxy-3-methyl-2-[(E)-1-methylprop-1-enyl]-1-[(S)-1-methylpropyl]pent-3-enyl}thiophene-2-sulfonamide], the figure is 1.95.
Regarding `CC(C)[C@@H](CO)NS(=O)(=O)c1ccc(Cl)s1` [Example 8, 5-Chloro-N-[(1S)-1-(hydroxymethyl)-2-methylpropyl]thiophene-2-sulfonamide], the fold induction at 1 µg/mL (Conc 1 μg/mL, luciferase activity over diluent control, read-out: APPI Fold Increase) is 1.5. Moreover, the fold induction at 3 µg/mL under setting [6] was 2.5. Further, under setting [2], the fold induction at 10 µg/mL stood at 3.7. Moreover, the fold induction at 20 µg/mL under setting [1] amounted to 3.3.
Turning to `CC[C@H](C)[C@H](NS(=O)(=O)c1ccc(Cl)s1)C(O)C/C=C/c1ccccc1` (stereo partly drawn) [Example 161, 5-chloro-N-{(S,E)-2-hydroxy-1-[(S)-1-methylpropyl]-5-phenylpent-4-enyl}thiophene-2-sulfonamide], the fold induction at 20 µg/mL under setting [1] worked out at 2.6.
On the same count and under the same terms, as for `CC[C@H](C)[C@H](NS(=O)(=O)c1ccc(Cl)s1)C(O)C(F)(F)F` (stereo partly drawn) [Example 196, 5-Chloro-N-[(S,S)-2-methyl-1-(2,2,2-trifluoro-1-hydroxyethyl)butyl]thiophene-2-sulfonamide], the figure is 20.7.
For `C=C(C)C(O)(C(=C)C)[C@@H](NS(=O)(=O)c1ccc(Br)s1)[C@@H](C)CC` [Example 174, 5-bromo-N-{(S)-2-hydroxy-2-isopropenyl-3-methyl-1-[(S)-1-methylpropyl]but-3-enyl}thiophene-2-sulfonamide], the fold induction at 10 µg/mL under setting [2] came out at 1.75.
Take `O=S(=O)(N[C@H](CO)C1CCC(NCc2ccccn2)CC1)c1ccc(Cl)s1` (stereo partly drawn) [Example 219, 5-chloro-N-[(S)-2-hydroxy-1-(4-(2-pyridyl)methylaminocyclohexyl)ethyl]thiophene-2-sulfonamide]: the fold induction at 20 µg/mL under setting [1] is 2.3.
On to `CC[C@H](C)[C@H](NS(=O)(=O)c1ccc(Cl)s1)[C@@H](O)C1C=CCCC1` (stereo partly drawn) [Example 155, 5-Chloro-N-{(S,S)-1-[(S)-cyclohex-2-en-1-yl(hydroxy)methyl]-2-methylbutyl}thiophene-2-sulfonamide], for which the fold induction at 20 µg/mL under setting [1] worked out at 4.2.
Still for that read-out and setting: in the case of `CC(NCc1ccccc1)[C@@H](CO)NS(=O)(=O)c1ccc(Cl)s1` (stereo partly drawn) [Example 84, N-[(1S)-2-(benzylamino)-1-(hydroxymethyl)propyl]-5-chloro-2-thiophenesulfonamide] it was 3.8; in that of `CC(C)C[C@@H](C)[C@@H](CO)NS(=O)(=O)c1ccc(Br)s1` [Example 56, 5-bromo-N-[(1S,2R)-1-(hydroxymethyl)-2,4-dimethylpentyl]thiophene-2-sulfonamide], 6.8.
Take `CCCCC(O)C(NS(=O)(=O)c1ccc(Cl)s1)C(C)CC` (mixture of isomers) [Example 123]: the “APPI Fold Increase” value under setting [4] is 2.14 fold and 1.76 fold.
Regarding `CC(c1ccccc1)C(CO)NS(=O)(=O)c1ccc(Cl)s1` (mixture of isomers) [Example 14], the “APPI Fold Increase” value is 1.87 fold and 3.33 fold under setting [5]; 3.45 fold under setting [4].
Turning to `CC[C@H](C)[C@@H](/C=N\O)NS(=O)(=O)c1ccc(Cl)s1` [Example 229], under setting [1], the fold induction at 20 µg/mL amounted to 6.3.
Take `CC[C@H](C)[C@@H](CO)NS(=O)(=O)c1cccs1` [Example 7, N-[(1S,2S)-1-(hydroxymethyl)-2-methylbutyl]thiophene-2-sulfonamide]: the “APPI Fold Increase” value under setting [3] was 3.2 fold.
For `CCCCCC[C@@H](c1ccco1)[C@@H](CO)NS(=O)(=O)c1ccc(Br)s1` [Example 73, 5-bromo-N-[(1S,2R)-2-(2-furyl)-1-(hydroxymethyl)octyl]thiophene-2-sulfonamide], the fold induction at 20 µg/mL under setting [1] amounted to 1.9.
For `CCCCC(CCCC)[C@@H](CO)NS(=O)(=O)c1ccc(Cl)s1` [Example 205, N-[(1S)-2-Butyl-1-(hydroxymethyl)hexyl]-5-chloro-2-thiophenesulfonamide], under setting [1], the fold induction at 20 µg/mL is 2.6.
On the same count and under the same terms, as for `C[C@@H](c1ccco1)[C@@H](CO)NS(=O)(=O)c1ccc(Br)s1` [Example 70, 5-bromo-N-[(1S,2R)-2-(2-furyl)-1-(hydroxymethyl)propyl]thiophene-2-sulfonamide], the figure is 4.6.
On to `CC(C)CC(CO)NS(=O)(=O)c1ccc(Cl)s1` (stereo not shown) [Example 90], for which the “APPI Fold Increase” value by setting is: under setting [5], 1.74 fold; under setting [4], 3.82 fold; under setting [3], 3.6 fold.
For `CCCCCC(O)[C@@H](NS(=O)(=O)c1cccs1)[C@@H](C)CC` (stereo partly drawn) [Example 142, N-{(S)-2-hydroxy-1-[(S)-1-methylpropyl]heptyl}thiophene-2-sulfonamide], the fold induction at 10 µg/mL under setting [2] was 3.59.
Consider `O=S(=O)(N[C@H](CO)C1CCC(N2CCOCC2)CC1)c1ccc(Cl)s1` (stereo partly drawn) [Example 217, 5-chloro-N-[(S)-2-hydroxy-1-(4-morpholinocyclohexyl)ethyl]thiophene-2-sulfonamide], for which the fold induction at 20 µg/mL under setting [1] was 1.8.
As to `C[C@@H](c1ccc(-c2ccccc2)cc1)[C@@H](CO)NS(=O)(=O)c1ccc(Cl)s1` [Example 53, N-[(1S,2S)-2-[1,1'-biphenyl]-4-yl-1-(hydroxymethyl)propyl]-5-chlorothiophene-2-sulfonamide], the fold induction at 20 µg/mL under setting [1] came out at 3.9.
Regarding `CCOC(=O)CNC1CCC([C@@H](CO)NS(=O)(=O)c2ccc(Cl)s2)CC1` (stereo partly drawn) [Example 220, 5-chloro-N-[(S)-2-hydroxy-1-(4-(carboethoxymethyl)aminocyclohexyl)ethyl]thiophene 2-sulfonamide], the fold induction at 20 µg/mL under setting [1] was 2.5.
For the compound `CC[C@H](C)[C@H](NS(=O)(=O)c1ccc(Cl)s1)C(C)O` (stereo partly drawn) [Example 119, 5-Chloro-N-[(S,S)-1-(1-hydroxyethyl)-2-methylbutyl]thiophene-2-sulfonamide], the fold induction at 0.3 µg/mL (Conc 0.3 μg/mL, luciferase activity over diluent control, read-out: APPI Fold Increase) was determined as 1.54. In addition, the fold induction at 3 µg/mL under setting [6] was determined as 2.49. In addition, under setting [2], the fold induction at 10 µg/mL is 4.1.
Regarding `CC[C@@H](C(C)C)[C@@H](CO)NS(=O)(=O)c1ccc(Br)s1` [Example 74, 5-bromo-N-[(1S,2S)-2-ethyl-1-(hydroxymethyl)-3-methylbutyl]thiophene-2-sulfonamide], the fold induction at 20 µg/mL under setting [1] came out at 5.1.
On to `CC1=CC(C)C(C(CO)NS(=O)(=O)c2ccc(Cl)s2)C(C)C1` (stereo not shown) [Example 22, 5-chloro-N-[2-hydroxy-1-(2,4,6-trimethylcyclohex-3-en-1-yl)ethyl]thiophene-2-sulfonamide], for which the fold induction at 20 µg/mL (read-out: APPI Fold Increase) came to 7.
Turning to `CC[C@@H](c1ccco1)[C@@H](CO)NS(=O)(=O)c1ccc(Br)s1` [Example 71, 5-bromo-N-[(1S,2R)-2-(2-furyl)-1-(hydroxymethyl)butyl]thiophene-2-sulfonamide], the fold induction at 20 µg/mL under setting [1] is 5.2.
